{"source": "patent US20140243418A1", "about": "“RASAGILINE FOR PARKINSON'S DISEASE MODIFICATION” (Teva Pharmaceutical Industries, Ltd., priority 2008, published 2014)", "tested_on": "Early Stage PD patients", "settings": "for 1 mg Early-Delayed Start Slope Difference, Estimate / 2 mg Early-Delayed Start Slope Difference, Estimate / 1 mg-Placebo Slope Difference, Estimate / 2 mg-Placebo Slope Difference, Estimate: Total UPDRS slopes; for 1 mg Early-Delayed Start Slope Difference, Estimate / 2 mg Early-Delayed Start Slope Difference, Estimate: Active Phase weeks 48-72, non-inferiority margin 0.15; for 1 mg Early-Delayed Start Slope Difference, Estimate / 1 mg-Placebo Slope Difference, Estimate / 1 mg-Placebo Week 36-12, Estimate / 1 mg Early-Delayed Start at week 72, Estimate: rasagiline 1 mg; for 2 mg Early-Delayed Start Slope Difference, Estimate / 2 mg-Placebo Slope Difference, Estimate / 2 mg-Placebo Week 36-12, Estimate / 2 mg Early-Delayed Start at week 72, Estimate: rasagiline 2 mg; for 1 mg-Placebo Slope Difference, Estimate / 2 mg-Placebo Slope Difference, Estimate: PC phase weeks 12-36, model that assumes linearity; for 1 mg-Placebo Week 36-12, Estimate / 2 mg-Placebo Week 36-12, Estimate: Total UPDRS, PC phase, alternative categorical model that compares week 36 to week 12; for outcome of the primary analysis (three hierarchal endpoints): both doses, post-hoc; for 1 mg Early-Delayed Start at week 72, Estimate / 2 mg Early-Delayed Start at week 72, Estimate: change from baseline in Total UPDRS, end of the Active Phase", "experimental": "1 mg/day rasagiline during Phase I and Phase II; • Group 2. 2 mg/day rasagiline during Phase I and Phase II; • Group 3. placebo during Phase I followed by 1 mg/day rasagiline during Phase II; and • Group 4. placebo during Phase I followed by 2 mg/day rasagiline during Phase II.\nThus, ‘early-start’ patients receive 72 weeks of treatment with rasagiline (1 or 2 mg once daily) and ‘delayed-start’ patients receive 36 weeks of placebo followed by 36 weeks of rasagiline (1 or 2 mg once daily). […] If subjects in either treatment group required additional anti-parkinsonian medication during the placebo-controlled stage of the trial, they could proceed directly to Phase II. Once in Phase II, no additional anti-PD therapy is permitted. If the patient requires additional medication in this stage they are discontinued from the study.\n1 mg/day rasagiline during Phase I and Phase II (1 mg early start) • 2. 2 mg/day rasagiline during Phase I and Phase II (2 mg early start) • 3. placebo during Phase I followed by 1 mg/day rasagiline during Phase II (1 mg delayed start) • 4. placebo during Phase I followed by 2 mg/day rasagiline during Phase II (2 mg delayed start)\nIf, at any stage during the placebo-controlled phase the investigator determines that a subject needs additional anti-PD therapy, the subject will proceed to Phase II of the study. The investigator, aided by a questionnaire, will give careful consideration to the issue of a subject's need for additional anti-PD therapy. Scheduled in-clinic visits will be conducted at baseline and at weeks 4, 12, 24 and 36. Therefore, altogether there will be 5 scheduled visits during this phase. Unscheduled visits may be conducted at any time to assess a subject's need for additional anti-PD therapy, for safety reasons or for any other reason.\nThus, subjects who receive 1 mg rasagiline during Phase I will continue to receive 1 mg during Phase II, subjects who receive 2 mg rasagiline during Phase I will continue to receive 2 mg during Phase II, and subjects who receive placebo during Phase I will receive either 1 mg or 2 mg rasagiline during Phase II. The study blind will be maintained. No additional anti-PD therapy will be permitted during this phase. This applies to both the subjects who enter Phase II after completing the full 36-week duration of Phase I and to subjects who are switched from Phase I to Phase II because of a need of additional anti-PD therapy. If, the investigator determines that a subject needs additional anti-PD therapy during Phase II, the subject will be prematurely withdrawn from the study. The investigator, aided by a questionnaire, will give careful consideration to the issue of a subject's need for additional anti-PD therapy. Scheduled in-clinic visits will be conducted every 6 weeks. Therefore, altogether there will be 6 visits during this phase—at weeks 42, 48, 54, 60, 66 and 72. Unscheduled visits may be conducted at any time to assess a subject's need for additional anti-PD therapy, for safety reasons or for any other reason.", "key": {"[1]": {"settings": "rasagiline 1 mg/day delayed-start, Baseline UPDRS > 25.5 (Upper Quartile)"}, "[2]": {"settings": "rasagiline 1 mg/day delayed-start, Baseline UPDRS ≦ 25.5 (Lower 3 Quartiles)"}, "[3]": {"settings": "rasagiline 1 mg/day delayed-start, all subjects"}, "[4]": {"settings": "rasagiline 1 mg/day delayed-start, all subjects, listed as Rasagiline"}, "[5]": {"settings": "rasagiline 1 mg/day early-start minus delayed-start, Baseline UPDRS > 25.5 (Upper Quartile)"}, "[6]": {"settings": "rasagiline 1 mg/day early-start minus delayed-start, Baseline UPDRS ≦ 25.5 (Lower 3 Quartiles)"}, "[7]": {"settings": "rasagiline 1 mg/day early-start, Baseline UPDRS > 25.5 (Upper Quartile)"}, "[8]": {"settings": "rasagiline 1 mg/day early-start, Baseline UPDRS ≦ 25.5 (Lower 3 Quartiles)"}, "[9]": {"settings": "rasagiline 1 mg/day early-start, all subjects"}, "[10]": {"settings": "rasagiline 1 mg/day early-start, all subjects, listed as Rasagiline"}}, "note": "Values joined by “and” are separate entries in the source; they are usually repeats but may differ in a detail not shown here. Equal entries are not always repeated. Where two headings read alike, the source gives them in different places.", "data": [{"molecule": "C#CCN[C@@H]1CCc2ccccc21", "note": "[rasagiline]", "values": [{"measurement": "Disease modifying effect", "setting": "1 mg treatment, according to FDA requirements as predefined in the statistical analysis plan", "value": "demonstrated"}, {"measurement": "Disease modifying effect", "setting": "2 mg treatment", "value": "not evident"}, {"measurement": "symptomatic effect observed in TEMPO", "setting": "ADAGIO placebo controlled (PC) phase, rasagiline 1 mg and 2 mg versus placebo", "value": "replicated"}, {"measurement": "change in Total UPDRS score at week 72", "setting": "Early Stage PD patients, dose not stated", "value": 2.8}, {"measurement": "rate of progression of PD", "setting": "Early Stage PD patients, improved from 0.139, dose not stated", "value": "0.066 score (change in Total UPDRS)/week"}, {"measurement": "1 mg Early-Delayed Start Slope Difference, Estimate", "setting": "ACTE", "value": 0.000}, {"measurement": "1 mg Early-Delayed Start Slope Difference, Estimate", "setting": "CO", "value": "−0.011"}, {"measurement": "1 mg Early-Delayed Start Slope Difference, Estimate", "setting": "PP", "value": "−0.011"}, {"measurement": "2 mg Early-Delayed Start Slope Difference, Estimate", "setting": "ACTE", "value": 0.029}, {"measurement": "2 mg Early-Delayed Start Slope Difference, Estimate", "setting": "CO", "value": 0.021}, {"measurement": "2 mg Early-Delayed Start Slope Difference, Estimate", "setting": "PP", "value": 0.022}, {"measurement": "1 mg-Placebo Slope Difference, Estimate", "setting": "CO data analysis set", "value": "−0.033"}, {"measurement": "1 mg-Placebo Slope Difference, Estimate", "setting": "ITT data analysis set", "value": "−0.046"}, {"measurement": "1 mg-Placebo Slope Difference, Estimate", "setting": "PP data analysis set", "value": "−0.037"}, {"measurement": "2 mg-Placebo Slope Difference, Estimate", "setting": "CO data analysis set", "value": "−0.061"}, {"measurement": "2 mg-Placebo Slope Difference, Estimate", "setting": "ITT data analysis set", "value": "−0.072"}, {"measurement": "2 mg-Placebo Slope Difference, Estimate", "setting": "PP data analysis set", "value": "−0.065"}, {"measurement": "1 mg-Placebo Week 36-12, Estimate", "setting": "CO", "value": "−0.799"}, {"measurement": "1 mg-Placebo Week 36-12, Estimate", "setting": "ITT", "value": "−1.043"}, {"measurement": "1 mg-Placebo Week 36-12, Estimate", "setting": "PP", "value": "−0.873"}, {"measurement": "2 mg-Placebo Week 36-12, Estimate", "setting": "CO", "value": "−1.463"}, {"measurement": "2 mg-Placebo Week 36-12, Estimate", "setting": "ITT", "value": "−1.668"}, {"measurement": "2 mg-Placebo Week 36-12, Estimate", "setting": "PP", "value": "−1.553"}, {"measurement": "difference in change in Total UPDRS score vs delayed treatment, maintained", "setting": "between Week 48 and Week 72, dose not stated", "value": 1.7, "unit": "score"}, {"measurement": "outcome of the primary analysis (three hierarchal endpoints)", "setting": "lower three quartiles of baseline UPDRS scores (≦25.5)", "value": "neither dose met all of the primary endpoints"}, {"measurement": "outcome of the primary analysis (three hierarchal endpoints)", "setting": "upper quartile of baseline total UPDRS (>25.5)", "value": "met all 3 primary endpoints"}, {"measurement": "1 mg Early-Delayed Start at week 72, Estimate", "setting": "ACTE data analysis set", "value": "−1.680"}, {"measurement": "1 mg Early-Delayed Start at week 72, Estimate", "setting": "CO data analysis set", "value": "−1.592"}, {"measurement": "1 mg Early-Delayed Start at week 72, Estimate", "setting": "PP data analysis set", "value": "−1.594"}, {"measurement": "2 mg Early-Delayed Start at week 72, Estimate", "setting": "ACTE data analysis set", "value": 0.356}, {"measurement": "2 mg Early-Delayed Start at week 72, Estimate", "setting": "CO data analysis set", "value": "−0.088"}, {"measurement": "2 mg Early-Delayed Start at week 72, Estimate", "setting": "PP data analysis set", "value": "−0.024"}, {"measurement": "reduction in Total UPDRS score at week 72", "setting": "corresponding to change of 2.8 at week 72", "value": 62.2, "unit": "%"}, {"measurement": "duration for which benefits of early treatment are sustained", "setting": "early treatment vs later initiation", "value": "at least 18 months"}, {"measurement": "Primary 2: estimated change in total UPDRS from baseline to week 72", "setting": "[1]", "value": 5.41}, {"measurement": "Primary 3: rate of change in UPDRS, weeks 48-72", "setting": "[1]", "value": 0.095, "unit": "UPDRS units/wk"}, {"measurement": "Primary 2: estimated change in total UPDRS from baseline to week 72", "setting": "[2]", "value": 4.03}, {"measurement": "Primary 3: rate if change in UPDRS, weeks 48-72", "setting": "[2]", "value": 0.08, "unit": "UPDRS units/wk"}, {"measurement": "Primary 2: estimated change in total UPDRS from baseline to week 72", "setting": "[3]", "value": 4.50}, {"measurement": "Primary 3: rate of change in UPDRS, weeks 48-72", "setting": "[3]", "value": 0.085, "unit": "UPDRS units/wk"}, {"measurement": "Primary 2: estimated change in total UPDRS from baseline to week 72", "setting": "[4]", "value": "4.52±0.56"}, {"measurement": "Primary 3: rate of change in UPDRS, weeks 48-72", "setting": "[4]", "value": "0.085±0.02", "unit": "UPDRS units/wk"}, {"measurement": "Primary 2: estimated change in total UPDRS from baseline to week 72, early-start-delayed-start", "setting": "[5]", "value": "−3.40±1.66 and −3.40"}, {"measurement": "Primary 3: rate of change in UPDRS, weeks 48-72, early-start-delayed-start", "setting": "[5]", "value": "−0.02", "unit": "UPDRS units/wk"}, {"measurement": "Primary 2: estimated change in total UPDRS from baseline to week 72, early-start-delayed-start", "setting": "[6]", "value": "−1.08"}, {"measurement": "Primary 3: rate if change in UPDRS, weeks 48-72, early-start-delayed-start", "setting": "[6]", "value": 0.004, "unit": "UPDRS units/wk"}, {"measurement": "Primary 2: estimated change in total UPDRS from baseline to week 72, early-start-delayed-start", "setting": "rasagiline 1 mg/day early-start minus delayed-start, all subjects", "value": "−1.68±0.75 and −1.68"}, {"measurement": "Primary 3: rate of change in UPDRS, weeks 48-72, early-start-delayed-start", "setting": "rasagiline 1 mg/day early-start minus delayed-start, all subjects, non-inferiority margin 0.15", "value": 0.00, "unit": "UPDRS units/wk"}, {"measurement": "Primary 2: estimated change in total UPDRS from baseline to week 72", "setting": "[7]", "value": 2.01}, {"measurement": "Primary 3: rate of change in UPDRS, weeks 48-72", "setting": "[7]", "value": 0.075, "unit": "UPDRS units/wk"}, {"measurement": "Primary 2: estimated change in total UPDRS from baseline to week 72", "setting": "[8]", "value": 2.94}, {"measurement": "Primary 3: rate if change in UPDRS, weeks 48-72", "setting": "[8]", "value": 0.09, "unit": "UPDRS units/wk"}, {"measurement": "Primary 2: estimated change in total UPDRS from baseline to week 72", "setting": "[9]", "value": 2.82}, {"measurement": "Primary 3: rate of change in UPDRS, weeks 48-72", "setting": "[9]", "value": 0.085, "unit": "UPDRS units/wk"}, {"measurement": "Primary 2: estimated change in total UPDRS from baseline to week 72", "setting": "[10]", "value": "2.82±0.53"}, {"measurement": "Primary 3: rate of change in UPDRS, weeks 48-72", "setting": "[10]", "value": "0.085±0.02", "unit": "UPDRS units/wk"}]}]}
